Source: ChEMBL document CHEMBL5465560, “Selectivity Literature for EUbOPEN Chemogenomic Library” (2024)
Each block holds one compound with its values, some of them ahead of it.

How the values were obtained:
[1] = biological target: T1, Receptor-interacting serine/threonine-protein kinase 1 (Homo sapiens) (UniProt Q13546); conditions: at 10 µM
T1 sequence (whole entry): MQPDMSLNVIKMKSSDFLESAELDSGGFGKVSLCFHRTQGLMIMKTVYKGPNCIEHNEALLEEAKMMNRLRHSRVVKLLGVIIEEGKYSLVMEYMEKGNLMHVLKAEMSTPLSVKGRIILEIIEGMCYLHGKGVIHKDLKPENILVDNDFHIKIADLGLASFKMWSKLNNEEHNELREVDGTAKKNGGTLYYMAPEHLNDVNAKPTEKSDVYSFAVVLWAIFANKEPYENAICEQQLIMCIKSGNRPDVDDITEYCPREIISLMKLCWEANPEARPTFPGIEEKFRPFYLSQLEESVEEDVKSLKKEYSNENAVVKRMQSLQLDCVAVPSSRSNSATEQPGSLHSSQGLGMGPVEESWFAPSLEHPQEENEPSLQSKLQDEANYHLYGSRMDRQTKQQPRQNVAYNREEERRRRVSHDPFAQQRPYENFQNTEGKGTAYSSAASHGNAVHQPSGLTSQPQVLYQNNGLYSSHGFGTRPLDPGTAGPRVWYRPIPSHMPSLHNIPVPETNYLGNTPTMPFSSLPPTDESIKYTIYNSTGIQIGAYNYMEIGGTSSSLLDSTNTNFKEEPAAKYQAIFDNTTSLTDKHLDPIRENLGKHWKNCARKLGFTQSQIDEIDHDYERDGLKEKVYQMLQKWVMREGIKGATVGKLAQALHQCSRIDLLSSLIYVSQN

[2] = biological target: Mitogen-activated protein kinase 9 (Homo sapiens, UniProt P45984); conditions: at 10 µM
[3] = biological target: T2, Serine/threonine-protein kinase TBK1 (Homo sapiens) (UniProt Q9UHD2); experiment: Selectivity interaction (KinomeScan (DiscoverX)) EUB0000595a TBK1; conditions: at 10 µM
T2 sequence (whole entry): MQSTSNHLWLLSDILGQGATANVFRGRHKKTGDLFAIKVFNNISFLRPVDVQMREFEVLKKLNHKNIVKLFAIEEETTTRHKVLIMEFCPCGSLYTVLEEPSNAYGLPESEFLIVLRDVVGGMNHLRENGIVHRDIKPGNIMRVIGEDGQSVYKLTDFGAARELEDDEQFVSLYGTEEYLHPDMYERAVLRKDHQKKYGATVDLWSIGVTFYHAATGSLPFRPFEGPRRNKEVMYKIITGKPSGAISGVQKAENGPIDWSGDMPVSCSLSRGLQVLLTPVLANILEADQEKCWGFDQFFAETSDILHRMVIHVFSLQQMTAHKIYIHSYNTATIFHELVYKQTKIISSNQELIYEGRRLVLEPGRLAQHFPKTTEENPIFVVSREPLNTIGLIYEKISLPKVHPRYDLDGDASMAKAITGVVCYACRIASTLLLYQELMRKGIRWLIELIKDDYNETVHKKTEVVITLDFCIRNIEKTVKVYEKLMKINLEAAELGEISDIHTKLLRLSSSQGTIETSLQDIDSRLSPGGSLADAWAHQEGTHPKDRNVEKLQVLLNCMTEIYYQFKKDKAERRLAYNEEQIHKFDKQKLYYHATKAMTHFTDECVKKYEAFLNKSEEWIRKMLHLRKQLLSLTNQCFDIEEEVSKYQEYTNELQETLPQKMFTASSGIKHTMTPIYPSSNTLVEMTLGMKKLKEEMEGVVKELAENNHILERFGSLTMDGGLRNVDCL

[4] = biological target: Ribosomal protein S6 kinase alpha-6 (Homo sapiens, UniProt Q9UK32); experiment: Selectivity interaction (Kinase panel (Eurofins, enzymatic assay)) EUB0000311b RPS6KA6
[5] = biological target: T3, Non-receptor tyrosine-protein kinase TNK1 (Homo sapiens) (UniProt Q13470); experiment: Selectivity interaction (KinomeScan (DiscoverX)) EUB0000607a TNK1; conditions: at 10 µM
T3 sequence (whole entry): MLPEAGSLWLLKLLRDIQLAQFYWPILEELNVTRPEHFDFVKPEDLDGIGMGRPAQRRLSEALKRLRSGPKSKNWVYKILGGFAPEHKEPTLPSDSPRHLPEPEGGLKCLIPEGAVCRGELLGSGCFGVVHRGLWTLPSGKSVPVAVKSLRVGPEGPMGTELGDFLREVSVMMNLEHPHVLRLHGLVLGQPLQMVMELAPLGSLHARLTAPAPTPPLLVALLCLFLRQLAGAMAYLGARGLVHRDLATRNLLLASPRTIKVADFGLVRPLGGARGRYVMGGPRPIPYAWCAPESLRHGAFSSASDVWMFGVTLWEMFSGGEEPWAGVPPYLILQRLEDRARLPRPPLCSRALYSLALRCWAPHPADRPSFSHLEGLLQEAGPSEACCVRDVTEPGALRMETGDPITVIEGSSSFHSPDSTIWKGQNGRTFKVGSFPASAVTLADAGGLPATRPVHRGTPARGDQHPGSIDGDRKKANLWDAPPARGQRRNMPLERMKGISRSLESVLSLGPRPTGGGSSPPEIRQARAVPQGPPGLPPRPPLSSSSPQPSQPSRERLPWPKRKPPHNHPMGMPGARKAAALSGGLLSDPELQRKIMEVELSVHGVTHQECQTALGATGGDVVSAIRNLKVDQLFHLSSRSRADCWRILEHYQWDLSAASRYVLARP

[6] = biological target: Serine/threonine-protein kinase 32C (Homo sapiens) (UniProt Q86UX6); experiment: Selectivity interaction (KinomeScan (DiscoverX)) EUB0000607a STK32C; conditions: at 10 µM
[7] = biological target: Angiopoietin-1 receptor (Homo sapiens) (UniProt Q02763); experiment: Selectivity interaction (KinomeScan (DiscoverX)) EUB0000666a TEK; conditions: at 10 µM
[8] = biological target: Death-associated protein kinase 3 (Homo sapiens) (UniProt O43293); experiment: Selectivity interaction (Kinase panel (DSF assay)) EUB0001558a DAPK3
Chain of Death-associated protein kinase 3 (Homo sapiens) (O43293 whole entry, looked up): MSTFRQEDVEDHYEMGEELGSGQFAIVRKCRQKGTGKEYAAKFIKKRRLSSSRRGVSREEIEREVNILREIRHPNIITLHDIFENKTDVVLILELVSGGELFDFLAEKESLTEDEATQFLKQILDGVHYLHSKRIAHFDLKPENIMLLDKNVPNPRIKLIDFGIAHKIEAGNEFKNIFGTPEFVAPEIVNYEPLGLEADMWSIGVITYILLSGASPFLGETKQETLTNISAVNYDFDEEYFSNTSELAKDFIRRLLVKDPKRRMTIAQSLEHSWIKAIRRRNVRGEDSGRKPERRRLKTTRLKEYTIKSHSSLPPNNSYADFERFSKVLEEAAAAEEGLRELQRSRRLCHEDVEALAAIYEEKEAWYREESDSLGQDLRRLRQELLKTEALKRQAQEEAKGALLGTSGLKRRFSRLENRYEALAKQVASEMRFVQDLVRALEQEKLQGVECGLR

Chain of Mitogen-activated protein kinase 9 (P45984 whole entry, looked up): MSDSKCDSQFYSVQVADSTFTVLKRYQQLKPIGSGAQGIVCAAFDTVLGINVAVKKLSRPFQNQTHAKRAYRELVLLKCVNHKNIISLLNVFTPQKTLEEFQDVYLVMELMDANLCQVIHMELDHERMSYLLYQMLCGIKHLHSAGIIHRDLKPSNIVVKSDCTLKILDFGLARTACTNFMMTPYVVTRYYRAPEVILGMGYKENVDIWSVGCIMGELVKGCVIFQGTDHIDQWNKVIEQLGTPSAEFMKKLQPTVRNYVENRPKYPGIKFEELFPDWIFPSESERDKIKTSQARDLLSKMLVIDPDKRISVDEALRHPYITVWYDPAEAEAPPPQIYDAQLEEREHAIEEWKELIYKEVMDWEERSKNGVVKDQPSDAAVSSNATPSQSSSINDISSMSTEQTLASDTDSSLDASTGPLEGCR
Chain of Ribosomal protein S6 kinase alpha-6 (Q9UK32 whole entry): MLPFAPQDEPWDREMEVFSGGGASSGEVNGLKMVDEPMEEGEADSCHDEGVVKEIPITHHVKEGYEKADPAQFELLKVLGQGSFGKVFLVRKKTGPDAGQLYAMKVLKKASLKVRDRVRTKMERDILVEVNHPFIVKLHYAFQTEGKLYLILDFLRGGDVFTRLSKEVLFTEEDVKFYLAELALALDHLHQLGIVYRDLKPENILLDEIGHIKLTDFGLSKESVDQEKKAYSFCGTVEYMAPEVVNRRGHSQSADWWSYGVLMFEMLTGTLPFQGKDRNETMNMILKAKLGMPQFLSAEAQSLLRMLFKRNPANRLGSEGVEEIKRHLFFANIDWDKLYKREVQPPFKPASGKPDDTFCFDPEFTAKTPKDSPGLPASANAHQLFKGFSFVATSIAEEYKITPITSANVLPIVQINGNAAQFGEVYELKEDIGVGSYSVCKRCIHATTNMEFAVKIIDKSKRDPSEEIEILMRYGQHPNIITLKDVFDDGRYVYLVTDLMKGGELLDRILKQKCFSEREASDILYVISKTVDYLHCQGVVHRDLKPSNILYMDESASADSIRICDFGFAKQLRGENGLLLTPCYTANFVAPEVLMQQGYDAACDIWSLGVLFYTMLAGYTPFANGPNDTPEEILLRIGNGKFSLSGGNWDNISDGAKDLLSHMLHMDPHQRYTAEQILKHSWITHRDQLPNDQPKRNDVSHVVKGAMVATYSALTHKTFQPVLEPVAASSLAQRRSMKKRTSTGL
Chain of Angiopoietin-1 receptor (Homo sapiens) (Q02763 whole entry): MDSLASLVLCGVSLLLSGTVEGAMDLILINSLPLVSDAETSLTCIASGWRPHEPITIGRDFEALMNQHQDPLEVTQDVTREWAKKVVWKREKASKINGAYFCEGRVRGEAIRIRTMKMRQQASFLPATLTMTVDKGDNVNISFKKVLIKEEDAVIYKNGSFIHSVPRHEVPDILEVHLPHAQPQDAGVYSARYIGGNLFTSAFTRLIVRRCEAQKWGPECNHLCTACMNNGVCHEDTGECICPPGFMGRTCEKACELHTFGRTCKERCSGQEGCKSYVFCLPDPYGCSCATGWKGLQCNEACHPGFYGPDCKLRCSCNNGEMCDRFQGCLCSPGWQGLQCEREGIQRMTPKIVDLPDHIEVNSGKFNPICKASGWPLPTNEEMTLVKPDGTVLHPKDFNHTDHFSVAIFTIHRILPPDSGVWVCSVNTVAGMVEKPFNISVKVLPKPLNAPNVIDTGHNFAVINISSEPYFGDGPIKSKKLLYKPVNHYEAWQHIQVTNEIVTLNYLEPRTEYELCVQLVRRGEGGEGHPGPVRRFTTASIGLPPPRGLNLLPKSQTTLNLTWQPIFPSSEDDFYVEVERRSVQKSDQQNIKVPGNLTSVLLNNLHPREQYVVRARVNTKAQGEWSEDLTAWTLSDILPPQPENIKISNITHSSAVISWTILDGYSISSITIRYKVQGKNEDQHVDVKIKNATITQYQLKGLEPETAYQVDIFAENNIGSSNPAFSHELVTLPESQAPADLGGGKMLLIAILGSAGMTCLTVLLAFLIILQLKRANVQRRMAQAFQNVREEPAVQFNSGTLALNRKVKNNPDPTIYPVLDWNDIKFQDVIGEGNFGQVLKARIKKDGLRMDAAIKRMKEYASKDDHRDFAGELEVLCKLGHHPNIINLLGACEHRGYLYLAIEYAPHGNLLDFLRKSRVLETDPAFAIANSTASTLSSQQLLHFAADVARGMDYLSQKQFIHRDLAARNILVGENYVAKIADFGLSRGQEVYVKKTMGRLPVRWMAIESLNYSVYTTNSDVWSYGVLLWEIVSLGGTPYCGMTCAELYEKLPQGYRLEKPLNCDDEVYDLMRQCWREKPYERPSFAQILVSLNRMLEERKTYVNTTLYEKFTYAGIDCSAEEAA
Chain of Serine/threonine-protein kinase 32C (Homo sapiens) (Q86UX6 whole entry): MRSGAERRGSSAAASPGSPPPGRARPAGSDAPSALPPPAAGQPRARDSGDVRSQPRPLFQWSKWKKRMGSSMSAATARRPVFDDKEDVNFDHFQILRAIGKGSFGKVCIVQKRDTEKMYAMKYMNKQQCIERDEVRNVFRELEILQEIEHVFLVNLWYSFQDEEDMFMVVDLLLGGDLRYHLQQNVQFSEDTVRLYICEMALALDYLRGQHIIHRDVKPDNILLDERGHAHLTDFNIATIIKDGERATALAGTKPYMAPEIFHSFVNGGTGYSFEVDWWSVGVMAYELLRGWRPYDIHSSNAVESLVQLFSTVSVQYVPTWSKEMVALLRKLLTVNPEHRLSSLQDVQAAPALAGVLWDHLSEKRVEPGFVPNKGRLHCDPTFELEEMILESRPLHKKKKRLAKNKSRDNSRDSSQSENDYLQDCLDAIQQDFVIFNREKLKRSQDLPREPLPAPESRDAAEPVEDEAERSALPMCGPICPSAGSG

Compound: Cc1cc([C@@H](C)Nc2ccccc2C(=O)O)c2nc(N3CCOCC3)cc(=O)n2c1 [AZD-6482]
- % of control [1]: 100%

- % of control [2]: 100%
Compound: CCN(CC)CCCCNc1ncc2cc(-c3cc(OC)cc(OC)c3)c(NC(=O)NC(C)(C)C)nc2n1

Compound: COCC(=O)NC/C=C/c1ccc2ncnc(Nc3ccc(Oc4ccc(C)nc4)c(C)c3)c2c1 [CP-724714]
- % of control [3]: 90%

- IC50 [4]: 0.036 µM
Compound: CCc1ccccc1C(=O)Nc1n[nH]c2c(C)c(F)c(C3C(C#N)=C(C)N(C)C(C)=C3C#N)cc12 [BAY-3827]

Compound: CNC(=O)Nc1ccc(-c2nc(N3CC4CCC(C3)O4)c3cnn(C4CCC5(CC4)OCCO5)c3n2)cc1
- % of control [5]: 78%
- % of control [6]: 90%

Compound: O=C(NOC[C@H](O)CO)c1ccc(F)c(F)c1Nc1ccc(I)cc1F
- % of control [7]: 100%

Compound: CC(C)(O)[C@H](F)CN1Cc2cc(NC(=O)c3cnn4cccnc34)c(N3CCOCC3)cc2C1=O
- dTM [8]: 1.8 K
